From patent publication US11566007B2, “Ras inhibitors” (Revolution Medicines, Inc., priority 2019, dated 2023)

Columns and labels:
KRAS Q61H = KRAS Q61H (Homo sapiens (Human), UniProt P01116+P62937, Q61H); assay: Ras-Raf (BRAF RBD) disruption / FRET / MOA assay, KRAS Q61H; assay type: biochemical; conditions: Ras-Raf disruption/FRET/MOA assay; class symbols; read-out: KRAS Q61H FRET data IC50
In short: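 Compounds (30 μM top final, 10-point 3-fold dilutions) incubated 3 h at 25° C with nucleotide-loaded Ras, cyclophilin A and BRAF RBD. Detection with 10 nM anti-His Eu-W1024 and 50 nM anti-GST allophycocyanin over another 1.5 h. Lowered TR-FRET ratio relative to DMSO wells gives IC50.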

K-Ras G12C = K-Ras G12C (Homo sapiens (Human), UniProt P01116+P62937, G12C); assay: Ras-Raf (BRAF RBD) disruption / FRET / MOA assay, KRAS G12C; assay type: biochemical; conditions: KRAS G12C; Ras-Raf disruption/FRET/MOA assay; read-out: IC50* KRAS G12C FRET data
K-Ras G12C, sequence (P01116-2 other isoform, or with tags, fused parts or gaps G12C): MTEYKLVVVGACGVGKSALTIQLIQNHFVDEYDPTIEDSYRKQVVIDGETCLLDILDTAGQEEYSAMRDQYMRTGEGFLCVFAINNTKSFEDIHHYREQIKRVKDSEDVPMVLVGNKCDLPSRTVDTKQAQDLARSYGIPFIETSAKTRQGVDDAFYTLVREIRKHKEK
K-Ras G12C, sequence (P62937 whole entry): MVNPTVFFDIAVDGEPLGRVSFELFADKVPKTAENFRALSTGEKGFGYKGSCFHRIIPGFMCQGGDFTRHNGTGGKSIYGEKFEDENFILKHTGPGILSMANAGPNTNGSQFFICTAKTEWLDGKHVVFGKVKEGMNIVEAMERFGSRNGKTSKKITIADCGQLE
In short: (§1)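 Compound-driven ternary complex of nucleotide-loaded Ras with cyclophilin A, disrupting BRAF RBD binding. 10-point 3-fold dilution from 30 μM final, 3 h at 25° C, then anti-His Eu-W1024 (10 nM) and anti-GST allophycocyanin (50 nM) for 1.5 h. IC50 from TR-FRET ratio decrease versus DMSO.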

KRAS G12D = KRAS G12D (Homo sapiens (Human), UniProt P01116+P62937, G12D); assay: Ras-Raf (BRAF RBD) disruption / FRET / MOA assay, KRAS G12D; assay type: biochemical; conditions: Ras-Raf disruption/FRET/MOA assay; class symbols; read-out: KRAS G12D FRET data IC50
KRAS G12D, sequence (P01116-2 other isoform, or with tags, fused parts or gaps G12D): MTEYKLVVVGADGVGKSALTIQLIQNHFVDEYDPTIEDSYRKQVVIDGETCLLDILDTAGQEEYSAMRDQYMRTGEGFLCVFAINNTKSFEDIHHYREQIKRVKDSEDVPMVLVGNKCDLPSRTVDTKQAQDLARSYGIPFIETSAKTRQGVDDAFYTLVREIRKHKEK
KRAS G12D, sequence (P62937 whole entry): as the sequence (P62937 whole entry) above
In short: as §1

KRAS G12V = KRAS G12V (Homo sapiens (Human), UniProt P01116+P62937, G12V); assay: Ras-Raf (BRAF RBD) disruption / FRET / MOA assay, KRAS G12V; assay type: biochemical; conditions: read-out: IC50* KRAS G12V FRET data
KRAS G12V, sequence (P01116-2 other isoform, or with tags, fused parts or gaps G12V): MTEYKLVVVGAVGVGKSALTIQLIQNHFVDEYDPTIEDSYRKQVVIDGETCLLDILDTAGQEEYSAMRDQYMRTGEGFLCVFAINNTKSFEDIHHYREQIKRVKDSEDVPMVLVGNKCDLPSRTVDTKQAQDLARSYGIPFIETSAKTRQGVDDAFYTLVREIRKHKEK
KRAS G12V, sequence (P62937 whole entry): as the sequence (P62937 whole entry) above
In short: as §1

KRAS G13D = KRAS G13D (Homo sapiens (Human), UniProt P01116+P62937, G13D); assay: Ras-Raf (BRAF RBD) disruption / FRET / MOA assay, KRAS G13D; assay type: biochemical; conditions: read-out: IC50* KRAS G13D FRET data
KRAS G13D, sequence (P01116-2 other isoform, or with tags, fused parts or gaps G13D): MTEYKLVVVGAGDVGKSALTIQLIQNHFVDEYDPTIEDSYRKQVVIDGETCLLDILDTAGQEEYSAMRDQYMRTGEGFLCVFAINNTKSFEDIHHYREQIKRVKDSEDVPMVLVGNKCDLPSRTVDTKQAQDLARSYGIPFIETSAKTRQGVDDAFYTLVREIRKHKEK
KRAS G13D, sequence (P62937 whole entry): as the sequence (P62937 whole entry) above
In short: as §1

KRAS WT = KRAS WT (Homo sapiens (Human), UniProt P01116+P62937); assay: Ras-Raf (BRAF RBD) disruption / FRET / MOA assay, KRAS WT; assay type: biochemical; conditions: read-out: IC50* KRAS WT FRET data
KRAS WT, sequence (P01116-2 other isoform, or with tags, fused parts or gaps): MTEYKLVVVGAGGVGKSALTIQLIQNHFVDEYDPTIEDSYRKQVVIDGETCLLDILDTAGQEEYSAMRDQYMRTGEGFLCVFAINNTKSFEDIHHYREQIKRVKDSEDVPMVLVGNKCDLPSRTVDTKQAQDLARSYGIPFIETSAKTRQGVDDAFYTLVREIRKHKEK
KRAS WT, sequence (P62937 whole entry): as the sequence (P62937 whole entry) above
In short: as §1

NCI-H358 (K-Ras G12C) = assay: CellTiter-Glo cell viability assay, NCI-H358; assay type: cell-based, human; conditions: Homo sapiens, NCI-H358, 120 h, NCI-H358, 5-day treatment; class symbols; read-out: Additional H358 Cell Viability assay data (K-Ras G12C, IC50)
In short: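 Viability of K-Ras mutant lines is measured by ATP luminescence after five days of compound treatment. Percent of DMSO control is calculated and dose-response data are fitted with a four-parameter logistic equation.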

KRAS Q61H, sequence (P01116-2 other isoform, or with tags, fused parts or gaps Q61H): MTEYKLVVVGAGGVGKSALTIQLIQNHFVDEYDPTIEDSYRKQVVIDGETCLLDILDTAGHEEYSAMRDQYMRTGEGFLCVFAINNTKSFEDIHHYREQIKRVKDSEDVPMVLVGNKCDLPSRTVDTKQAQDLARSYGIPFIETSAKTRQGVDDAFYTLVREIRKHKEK
KRAS Q61H, sequence (P62937 whole entry): as the sequence (P62937 whole entry) above

Structure (SMILES)	IC50 (KRAS Q61H) [nM]	IC50 (K-Ras G12C) [nM]	IC50 (KRAS G12D) [nM]	IC50 (KRAS G12V) [nM]	IC50 (KRAS G13D) [nM]	IC50 (KRAS WT) [nM]	IC50 (NCI-H358 (K-Ras G12C)) [nM]
C=CC(=O)N1CC[C@H](C(=O)N(C)[C@H](C(=O)N[C@H]2CC3=NC=C(O3)c3ccc4c(c3)c(c(-c3cccnc3[C@H](C)OC)n4CC)CC(C)(C)COC(=O)[C@@H]3CCCN(N3)C2=O)C(C)C)C1 (atropisomer, axis not shown) [Example A278]	1000 to 10000	100 to 1000	> 10000	1000 to 10000	1000 to 10000	1000 to 10000	100 to 1000
CCn1c(-c2cccnc2[C@H](C)OC)c2c3cc(ccc31)-c1cccc(c1)C[C@H](NC(=O)[C@H](C(C)C)N(C)C(=O)[C@H]1CCN(C(=O)C#CC(C)(C)N(C)C)C1)C(=O)N1CCC[C@H](N1)C(=O)OCC(C)(C)C2 (atropisomer, axis not shown) [Example A290]	1000 to 10000	< 10	> 10000	1000 to 10000	1000 to 10000	1000 to 10000	< 10
C=CS(=O)(=O)N1CCC2(CCN([C@H](C(=O)N[C@H]3Cc4cc(O)cc(c4)-c4ccc5c(c4)c(c(-c4cccnc4[C@H](C)OC)n5CC)CC(C)(C)COC(=O)[C@@H]4CCCN(N4)C3=O)C(C)C)C2=O)CC1 (atropisomer, axis not shown) [Example A299]	< 10	< 10	1000 to 10000	100 to 1000	100 to 1000	10 to 100	< 10
CO[C@@H](C)c1ncccc1-c1c2c3cc(ccc3n1CC(F)(F)F)-c1csc(n1)C[C@H](NC(=O)[C@@H](COC1CN(C(=O)C#CC(C)(C)N(C)C)C1)C(C)C)C(=O)N1CCC[C@H](N1)C(=O)OCC(C)(C)C2 (atropisomer, axis not shown) [Example A343]	1000 to 10000	< 10	> 10000	1000 to 10000	> 10000	1000 to 10000	< 10
C=CC(=O)N1CC[C@H](C(=O)N(C)[C@H](C(=O)N[C@H]2Cc3cc(cc(C(F)F)c3)-c3ccc4c(c3)c(c(-c3cc(N5CCN(C)CC5)cnc3[C@H](C)OC)n4CC(F)(F)F)CC(C)(C)COC(=O)[C@@H]3CCCN(N3)C2=O)C(C)C)C1 (atropisomer, axis not shown) [Example A357]	100 to 1000	100 to 1000	1000 to 10000	100 to 1000	100 to 1000	100 to 1000	< 10
CO[C@@H](C)c1ncccc1-c1c2c3cc(ccc3n1CC(F)(F)F)-c1cccc(c1)C[C@H](NC(=O)[C@@H](COC1CN(C(=O)C#CC(C)(C)N(C)C)C1)C(C)C)C(=O)N1CCC[C@H](N1)C(=O)OCC(C)(C)C2 (atropisomer, axis not shown) [Example A376]	1000 to 10000	< 10	> 10000	1000 to 10000	> 10000	1000 to 10000	< 10
C=CC(=O)N1C[C@H](C)N(C(=O)N(C)[C@H](C(=O)N[C@H]2Cc3nc(cs3)-c3ccc4c(c3)c(c(-c3cccnc3[C@H](C)OC)n4CC)CC(C)(C)COC(=O)[C@@H]3CCCN(N3)C2=O)C(C)C)C[C@@H]1C (atropisomer, axis not shown) [Example A385]	10 to 100	10 to 100	100 to 1000	100 to 1000	100 to 1000	10 to 100	< 10
C=CC(=O)N1CCC12CN(C(=O)N(C)[C@H](C(=O)N[C@H]1Cc3nc(cs3)-c3ccc4c(c3)c(c(-c3cccnc3[C@H](C)OC)n4CC)CC(C)(C)COC(=O)[C@@H]3CCCN(N3)C1=O)C(C)C)C2 (atropisomer, axis not shown) [Example A393]	100 to 1000	100 to 1000	1000 to 10000	1000 to 10000	1000 to 10000	100 to 1000	10 to 100
CCn1c(-c2cccnc2[C@H](C)OC)c2c3cc(ccc31)-c1cc(F)cc(c1)C[C@H](NC(=O)[C@@H](COC1CN(C(=O)C#CC(C)(C)N(C)C)C1)C(C)C)C(=O)N1CCC[C@H](N1)C(=O)OCC(C)(C)C2 (atropisomer, axis not shown) [Example A403]	1000 to 10000	< 10	> 10000	1000 to 10000	> 10000	> 10000	< 10
C=CC(=O)N1CC2(CCN2C(=O)N(C)[C@H](C(=O)N[C@H]2Cc3nc(cs3)-c3ccc4c(c3)c(c(-c3cccnc3[C@H](C)OC)n4CC)CC(C)(C)COC(=O)[C@@H]3CCCN(N3)C2=O)C(C)C)C1 (atropisomer, axis not shown) [Example A407]	10 to 100	< 10	100 to 1000	100 to 1000	100 to 1000	100 to 1000	< 10
C=CC(=O)N1CC[C@H](C(=O)N(C)[C@H](C(=O)N[C@H]2CC3=NN=C(O3)c3ccc4c(c3)c(c(-c3cccnc3[C@H](C)OC)n4CC)CC(C)(C)COC(=O)[C@@H]3CCCN(N3)C2=O)C(C)C)C1 (atropisomer, axis not shown) [Example A447]	1000 to 10000	100 to 1000	> 10000	1000 to 10000	> 10000	1000 to 10000	100 to 1000
C=CC(=O)Nc1ncc(C(=O)N(C)[C@H](C(=O)N[C@H]2Cc3cccc(c3)-c3ccc4c(c3)c(c(-c3cccnc3[C@H](C)OC)n4CC)CC(C)(C)COC(=O)[C@@H]3CCCN(N3)C2=O)C(C)C)n1C (atropisomer, axis not shown) [Example A474]	100 to 1000	< 10	> 10000	1000 to 10000	1000 to 10000	1000 to 10000	< 10
C=CC(=O)N1CC[C@H](C(=O)N2CC[C@H](C)[C@H]2C(=O)N[C@H]2Cc3cccc(c3)-c3ccc4c(c3)c(c(-c3cccnc3[C@H](C)OC)n4CC)CC(C)(C)COC(=O)[C@@H]3CCCN(N3)C2=O)C1 (atropisomer, axis not shown) [Example A494]	100 to 1000	100 to 1000	> 10000	> 10000	> 10000	1000 to 10000	100 to 1000
C=CC(=O)N1CC[C@H](C(=O)N2CCCCC[C@H]2C(=O)N[C@H]2Cc3cccc(c3)-c3ccc4c(c3)c(c(-c3cccnc3[C@H](C)OC)n4CC)CC(C)(C)COC(=O)[C@@H]3CCCN(N3)C2=O)C1 (atropisomer, axis not shown) [Example A496]	1000 to 10000	1000 to 10000	> 10000	> 10000	> 10000	> 10000	100 to 1000
CCn1c(-c2cccnc2[C@H](C)OC)c2c3cc(ccc31)-c1cccc(c1)C[C@H](NC(=O)[C@H](C(C)C)N1CC[C@]3(CCN(C(=O)C#CC(C)(C)N(C)C)C3)C1=O)C(=O)N1CCC[C@H](N1)C(=O)OCC(C)(C)C2 (atropisomer, axis not shown) [Example A534, (2S)-2-((S)-7-(4-(dimethylamino)-4-methylpent-2-ynoyl)-1-oxo-2,7-diazaspiro[4.4]nonan-2-yl)-N-((6^3S,4S)-1^1-ethyl-1^2-(2-((S)-1-methoxyethyl)pyridin-3-yl)-10,10-dimethyl-5,7-dioxo-6^1,6^2,6^3,6^4,6^5,6^6-hexahydro-1^1H-8-oxa-1(5,3)-indola-6(1,3)-pyridazina-2(1,3)-benzenacycloundecaphane-4-yl)-3-methylbutanamide]	100 to 1000	< 10	1000 to 10000	1000 to 10000	1000 to 10000	1000 to 10000	< 10
C=CC(=O)N1CC[C@H]2[C@@H]1CN2C(=O)N(C)[C@H](C(=O)N[C@H]1Cc2nc(cs2)-c2ccc3c(c2)c(c(-c2cccnc2[C@H](C)OC)n3CC)CC(C)(C)COC(=O)[C@@H]2CCCN(N2)C1=O)C(C)C (atropisomer, axis not shown) [Example A547]	100 to 1000	100 to 1000	1000 to 10000	1000 to 10000	1000 to 10000	100 to 1000	100 to 1000
